Experimental data published in patent publication US20260115187A1, “TRICYCLIC SKELETON COMPOUND AND USE THEREOF IN PREPARATION OF ANTITUMOR DRUG” (ZHONGSHAN HOSPITAL, FUDAN UNIVERSITY, priority 2024, published 2026).
Where two headings read alike, the source gives them in different places.

Columns and labels:
[1] = tested on: MHCC97H KSR2 OE (97H cells overexpressing KSR2); test: Cell IC50 assay (CCK8 cell viability), MHCC97H KSR2 OE; type: cell-based; details: Homo sapiens
Experimental: (§1) (1) Cell Preparation: Hepatoma cells (PLC/PRF/5, sourced from the Chinese Academy of Sciences; MHCC97H, sourced from this research institute) in good growth condition are prepared. The cells are trypsinized, diluted, and seeded into 96-well cell culture plates. 1,000-3,000 cells are added per well. The plates are then placed in a cell culture incubator at 37° C. with 5% CO2. Drugs are added after the cells have adhered for 24 h.
(§2) (2) Drug Addition: The drugs are subjected to gradient dilution, typically setting 9 concentrations. Control groups containing no drug medium and medium containing only the drug solvent are also set up. The diluted drugs are added to the cell culture plates seeded the previous day. The plates are incubated for 72 h.
(§3) (3) CCK8 Assay for Cell Viability: CCK8 is mixed with culture medium at a 1:10 ratio. 100 μL of this mixture is added to each well of the cell culture plate. After incubating for 2-4 h, the OD values are measured using a microplate reader.
(§4) (4) Data Analysis: Based on the corresponding OD values, the data are compiled, IC50 curves are plotted, and the IC50 values are obtained.
(§5) (5) IC50 Verification: The theoretical IC50 value is identified from the IC50 curve. Drug concentrations at ½ times, 1 time, and 2 times this theoretical value are used for verification.

[2] = tested on: PLC/PRF/5 KSR2 OE (PLC cells overexpressing KSR2); test: Cell IC50 assay (CCK8 cell viability), PLC/PRF/5 KSR2 OE; type: cell-based; details: Homo sapiens, read-out: IC50 value of cell viability, PLC/PRF/5 KSR2 OE (PLC cells overexpressing KSR2)
Experimental: as §1, §2, §3, §4, §5

[3] = hepatoma cells, 72 h incubation, CCK8, read-out: IC50 value of cell viability, MHCC97H KSR2 OE (97H cells overexpressing KSR2)
[4] = PLC-PRF-5, hepatoma cells, 72 h incubation, CCK8
[5] = read-out: IC50 value of cell viability, MHCC97H KSR2 OE (97H cells overexpressing KSR2)

Structure (SMILES) | IC50 [1, 3] | IC50 [2, 4] | IC50 [1, 5] | IC50 ([2]; PLC-PRF-5, 72 h)
CN1CCN(C2CCN(CCCNC(=O)c3nn(C)c4c3COc3cc(OC(F)(F)F)ccc3-4)CC2)CC1 [Compound 105] | 3 µM | 4 µM |  | 
CN1CCN(C2CCN(C3CC(CNC(=O)c4nn(C)c5c4CSc4ccccc4-5)C3)CC2)CC1 (stereo not drawn) [Compound 78] | 6 µM | 12 µM |  | 
CC(C)N1CCN(C2CN(CCCNC(=O)c3nn(C)c4c3COc3cc(Cl)ccc3-4)C2)CC1 [Compound 103] | 5 µM | 5 µM |  | 
Cn1nc(C(=O)NCCCN2CCC(N3CCNCC3)CC2)c2c1-c1ccccc1SC2 [Compound 41] | 7 µM | 8 µM |  | 
CN1CCN(C2CCN(CCCNC(=O)c3nn(C)c4c3COc3ccc(C#N)cc3-4)CC2)CC1 [Compound 82] | 8 µM | 8 µM |  | 
Cn1nc(C(=O)NCCCN2CCN(C3CCCCC3)CC2)c2c1-c1ccccc1SC2 [Compound 8] |  |  | 62 µM | 61 µM
Cc1ccc2c(c1)OCc1c(C(=O)NCCCN3CCC(N4CCN(C)CC4)CC3)nn(C)c1-2 [Compound 120] | 10 µM | 8 µM |  | 
Cn1nc(C(=O)NCCCN2CC(N3CCOCC3)C2)c2c1-c1ccc(Cl)cc1OC2 [Compound 98] | 29 µM | 18 µM |  | 
CN1CCN(C2CCN(CCCNC(=O)c3nn(C4COC4)c4c3CSc3ccccc3-4)CC2)CC1 [Compound 88] | 41 µM | 22 µM |  | 
Cn1nc(C(=O)NCCCN2CCC(NC(=O)C3CC3)CC2)c2c1-c1ccccc1SC2 [Compound 57] | 21 µM | 2 µM |  | 
Cn1nc(C(=O)NCCCN2CCC(N3CCOCC3)CC2)c2c1-c1ccccc1SC2 [Compound 42] | 39 µM | 43 µM |  | 
CN1CCN(C2CCN(CC(F)(F)CNC(=O)c3nn(C)c4c3CSc3ccccc3-4)CC2)CC1 [Compound 33] | 18 µM | 19 µM |  | 
CN1CCN(C2CN(CCCNC(=O)c3n[nH]c4c3COc3cc(Cl)ccc3-4)C2)CC1 [Compound 126] | 7 µM | 9 µM |  | 
CN1CCN(C2CCN(CCCNC(=O)c3n[nH]c4c3COc3cc(Cl)c(C#N)cc3-4)CC2)CC1 [Compound 128] | 6 µM | 4 µM |  | 
Cn1nc(C(=O)NCCCN2CCC(O)(c3ccccc3)CC2)c2c1-c1ccccc1SC2 [Compound 32] | 16 µM | 17 µM |  | 
CN(CCCN1CCN(C2CCCCC2)CC1)C(=O)c1nn(C)c2c1CSc1ccccc1-2 [Compound 12] | 86 µM | 56 µM |  | 
Cn1nc(C(=O)NCCCN2CCN(C3CCC(F)(F)CC3)CC2)c2c1-c1ccccc1SC2 [Compound 1] |  |  | 41 µM | 45 µM
CN1CCN(C2CN(CCCNC(=O)c3n[nH]c4c3COc3cc(C(F)(F)F)c(C#N)cc3-4)C2)CC1 [Compound 131] | 9 µM | 14 µM |  | 
CN1CCN(C2CCN(CCCNC(=O)c3nn(C)c4c3COc3ccc(F)cc3-4)CC2)CC1 [Compound 76] | 22 µM | 18 µM |  | 

Structure (SMILES) | IC50 [1, 3] | IC50 [2, 4] | IC50 [1, 5] | IC50 ([2]; PLC-PRF-5, 72 h)
CN1CCN(C2CCN(CCCNC(=O)c3nn(C)c4c3CSc3cc(Cl)ccc3-4)CC2)CC1 [Compound 96] | 1 µM | 4 µM |  | 
CN1CCN(C2CCN(CCCNC(=O)c3nn(C)c4c3COc3cc(Cl)c(C#N)cc3-4)CC2)CC1 [Compound 113] | 0.8 µM | 1 µM |  | 
CN1CC2CCC(C1)N2C1CCN(CCCNC(=O)c2nn(C)c3c2CSc2ccccc2-3)CC1 [Compound 74] | 8 µM | 10 µM |  | 
CCN1CCN(C2CCN(CCCNC(=O)c3nn(C)c4c3COc3cc(Cl)ccc3-4)CC2)CC1 [Compound 84] | 1 µM | 2 µM |  | 
Cn1nc(C(=O)NCCCN2CCC(N3CCN(CCO)CC3)CC2)c2c1-c1ccccc1SC2 [Compound 67] | 24 µM | 20 µM |  | 
CN(C)C1CN(CCCNC(=O)c2nn(C)c3c2CSc2ccccc2-3)C1 [Compound 54] | 5 µM | 6 µM |  | 
Cn1nc(C(=O)NCCCN2CCN(C3CCCCC3)CC2)c2c1-c1ccccc1OC2 [Compound 16] | 46 µM | 26 µM |  | 
CCn1nc(C(=O)NCCCN2CCN(C3CCCCC3)CC2)c2c1-c1ccccc1SC2 [Compound 14] | 14 µM | 39 µM |  | 
Cn1nc(C(=O)NCCCN2CCC(N3CCCCC3)CC2)c2c1-c1ccccc1SC2 [Compound 13] | 2 µM | 2 µM |  | 
CC(C)N1CCN(C2CCN(CCCNC(=O)c3nn(C)c4c3CSc3ccccc3-4)CC2)CC1 [Compound 60] | 4 µM | 2 µM |  | 
CN1CCN(C2CCN(CCCNC(=O)c3nn(C)c4c3CS(=O)(=O)c3ccccc3-4)CC2)CC1 [Compound 75] | 105 µM | 18 µM |  | 
CN1CCN(C2CCN(CCCNC(=O)c3nn(C)c4c3COc3cc(Br)ccc3-4)CC2)CC1 [Compound 92] | 4 µM | 4 µM |  | 
CN1CCN(C2CCN(CCCNC(=O)c3c4c(nn3C3COC3)-c3ccccc3SC4)CC2)CC1 [Compound 89] | 32 µM | 15 µM |  | 
CN1CCN(C2CCN(CCCNC(=O)c3nn(C)c4c3COc3ccc(Cl)cc3-4)CC2)CC1 [Compound 69] | 5 µM | 0.6 µM |  | 
CN1CCN(C2CN(CCCNC(=O)c3nn(C)c4c3COc3cc(Cl)c(C#N)cc3-4)C2)CC1 [Compound 119] | 7 µM | 5 µM |  | 
CN1CCN(C2CN(CCCNC(=O)c3nn(C)c4c3CSc3cc(Cl)ccc3-4)C2)CC1 [Compound 97] | 5 µM | 7 µM |  | 
CN1CCN(C2CCN(CCCNC(=O)c3nn(C)c4c3COc3c(Cl)cccc3-4)CC2)CC1 [Compound 72] | 2 µM | 2 µM |  | 
Cn1nc(C(=O)NCCCN2CCN(c3ncccn3)CC2)c2c1-c1ccccc1SC2 [Compound 28] | 31 µM | 11 µM |  | 
CN1CCN(C2CCN(CCCNC(=O)c3nn(C)c4c3COc3c(F)cccc3-4)CC2)CC1 [Compound 73] | 3 µM | 12 µM |  | 

Structure (SMILES) | IC50 [1, 3] | IC50 [2, 4] | IC50 [1, 5] | IC50 ([2]; PLC-PRF-5, 72 h)
Cn1nc(C(=O)NCCCN2CCC(N3CCN(CC4CC4)CC3)CC2)c2c1-c1ccccc1SC2 [Compound 64] | 6 µM | 5 µM |  | 
O=C(NCCCN1CCN(C2CCCCC2)CC1)c1nn(CC2CC2)c2c1CSc1ccccc1-2 [Compound 15] | 39 µM | 10 µM |  | 
Cn1nc(C(=O)NCCCN2CCN(C3CC4(CCC4)C3)CC2)c2c1-c1ccccc1SC2 [Compound 4] | 15 µM | 22 µM |  | 
CN1CCN(C2CN(C3CC(CNC(=O)c4nn(C)c5c4CSc4ccccc4-5)C3)C2)CC1 (stereo not drawn) [Compound 77] | 27 µM | 21 µM |  | 
CN1CCN(C2CN(CCCNC(=O)c3nn(C)c4c3COc3cc(OC(F)(F)F)ccc3-4)C2)CC1 [Compound 107] | 5 µM | 2 µM |  | 
CN1CCN(C2CCN(CCCNC(=O)c3nn(C)c4c3COc3cc(C5CC5)ccc3-4)CC2)CC1 [Compound 93] | 4 µM | 3 µM |  | 
Cn1nc(C(=O)NCCCN2CCN(C3CCCCC3)CC2)c2c1-c1ccccc1S(=O)(=O)C2 [Compound 7] | 88 µM | 85 µM |  | 
CN1CCN(C2CCN(CCCNC(=O)c3nn(CC(C)(C)O)c4c3CSc3ccccc3-4)CC2)CC1 [Compound 90] | 34 µM | 21 µM |  | 
Cn1nc(C(=O)NCCCN2CCC(N3CCN(C4CC4)CC3)CC2)c2c1-c1ccccc1SC2 [Compound 63] | 10 µM | 12 µM |  | 
Cn1nc(C(=O)NCCCN2CCC(N3CCN(S(C)(=O)=O)CC3)CC2)c2c1-c1ccccc1SC2 [Compound 56] | 62 µM | 50 µM |  | 
Cn1nc(C(=O)NCCCN2CCN(CC3CC3)CC2)c2c1-c1ccccc1SC2 [Compound 5] |  |  | 44 µM | 25 µM
CN1CCN(C2CN(C3CC(CNC(=O)c4nn(C)c5c4CSc4cc(Cl)ccc4-5)C3)C2)CC1 (stereo not drawn) [Compound 110] | 9 µM | 4 µM |  | 
Cn1nc(C(=O)NCCCN2CCC(N3CCCCC3)C(F)(F)C2)c2c1-c1ccccc1SC2 (stereo not drawn) [Compound 36] | 71 µM | 62 µM |  | 
CCN1CCN(C2CN(CCCNC(=O)c3nn(C)c4c3CSc3cc(Cl)ccc3-4)C2)CC1 [Compound 109] | 10 µM | 7 µM |  | 
Cn1nc(C(=O)NCC(F)(F)CN2CCC(N3CCC(F)(F)CC3)CC2)c2c1-c1ccccc1SC2 [Compound 37] | 28 µM | 19 µM |  | 
Cn1nc(C(=O)NCCCN2CCC(N3CCC(O)C3)CC2)c2c1-c1ccccc1SC2 (stereo not drawn) [Compound 46] | 6 µM | 2 µM |  | 
CN1CCN(C2CCN(CCCNC(=O)c3nn(C)c4c3COc3cc(Cl)ccc3-4)CC2)CC1 [Compound 68] | 2 µM | 0.7 µM |  | 
CN(C)C1CCN(CCCNC(=O)c2nn(C)c3c2CSc2ccccc2-3)C1 (stereo not drawn) [Compound 52] | 50 µM | 59 µM |  | 
CN1CCN(C2CCN(CCCNC(=O)c3n[nH]c4c3COc3cc(Cl)ccc3-4)CC2)CC1 [Compound 125] | 1 µM | 1 µM |  | 
